Patent EP1428528A1, “Synergistic combinations of dietary fiber and NSAIDs for the treatment of cancer” (Tiense Suikerraffinaderij N.V., priority 2002, dated 2004)
Marks after values point to notes of the source that are not given here.

How the values were obtained:
[1] = system: azoxymethane-induced aberrant crypt foci in rat colon; assay: Aberrant crypt foci (ACF) study in azoxymethane-treated rats, Example 1; type: in vivo, male Fisher 344 weanling rats; conditions: for Total ACF / Number of foci with 1 aberrant crypt per focus / Number of foci with 2 aberrant crypts per focus / Number of foci with 3 aberrant crypts per focus / Number of foci with 4 aberrant crypts per focus / Number of foci with 5(+) (5 and more) aberrant crypts per focus: Example 1, Table 3; for Total ACF / Number of foci with 1 aberrant crypt per focus / Number of foci with 2 aberrant crypts per focus / Number of foci with 3 aberrant crypts per focus / Number of foci with 4 aberrant crypts per focus / Number of foci with 5(+) (5 and more) aberrant crypts per focus / Number of AOM-induced ACF in rat colon in proximal part / Number of AOM-induced ACF in rat colon in distal part / Number of AOM-induced ACF in rat colon in total ACF in colon: Means ± SE, n=10; for Number of foci with 1 aberrant crypt per focus / Number of foci with 2 aberrant crypts per focus / Number of foci with 3 aberrant crypts per focus / Number of foci with 4 aberrant crypts per focus / Number of foci with 5(+) (5 and more) aberrant crypts per focus: proximal and distal colon; for Number of AOM-induced ACF in rat colon in proximal part / Number of AOM-induced ACF in rat colon in distal part / Number of AOM-induced ACF in rat colon in total ACF in colon: diet 13 weeks, inulin 100 g/kg and/or NSAID 0.2 g/kg diet; for Number of AOM-induced ACF in rat colon in proximal part: AOM 16mg/kg s.c. at 7 and 8 weeks of age; for Number of AOM-induced ACF in rat colon in distal part / Number of AOM-induced ACF in rat colon in total ACF in colon: AOM 16mg/kg s.c.
Experimental: The inulin used was Synergy1 (in short Syn1) and Synergy2 (in short Syn2), which are mixtures of oligofructose (RAFTILOSE®) and inulin of av. DP of 23 to 25 (RAFTILINE®) with a total content of inulin with a DP 9 and DP 10 of maximally 5 % by weight, at a weight ratio of 1:1 and 1:2, respectively, obtained from ORAFTI (Belgium) (RAFTILOSE® and RAFTILINE® are trade names of RT/TS, Belgium). The diets were prepared fresh every week and stored at 4°C until fed. The experimental diets were formulated based on AIN 93G diets. The ingredients were obtained from ICN Biomedicals, Aurora, OH, USA. All other chemicals were obtained from Sigma Chemical Co., St. Louis, MO, USA. All the protocols involving rats have been approved by the Institutional Animal Care and Use Committee of Alabama A& M University.
(§1) After 1 week of acclimatisation, 100 male Fisher 344 weanling rats were divided into 10 groups of 10 rats per group and assigned the AIN93G (Control) diet or the experimental diets for 13 weeks. For the study, temperature was maintained at 21°C ± 1°C, relative humidity at 50%, and light and dark cycles at 12 hours each. Feed and water were provided ad libitum. Weekly body weights and daily feed intake were recorded. After adaptation, all animals received two subcutaneous injections of azoxymethane (AOM) in saline at 16mg/kg body weight at 7 and 8 weeks of age. At the end of the feeding period, the animals were sacrificed using CO2 euthanasia after an overnight's fast. Accordingly, the colons of the rats were removed, flushed with potassium phosphate buffer 0.1M (pH 7.2) and examined for aberrant crypt foci (ACF) and tumours.

colorectal adenomas = conditions: patients with familial adenomatous polyposis; cited from earlier work
[2] = system: azoxymethane-induced aberrant crypt foci in rat colon; assay: Aberrant crypt foci (ACF) study in azoxymethane-treated rats, Example 2 (same protocol as Example 1); type: in vivo, Fisher 344 male rats
Experimental: as §1
In example 2, experiments similar to the ones of example 1 were carried out, to examine the anti-cancer effects of a composition containing a combination of RAFTILINE® HP and sulindac. The 4 groups each of 10 Fisher 344 male rats were given a diet containing either control diet, control diet + RAFTILINE®HP, control diet + sulindac, or control diet + RAFTILINE®HP + sulindac (RAFTILINE® : trade name of RT/TS, Belgium). The protocol of the experiments was the same as the one of example 1.

[3] = Example 2, Table 6, Means ± SEM
[4] = Example 2, inulin 100 g/kg and/or sulindac 0.2 g/kg diet, Means ± SE, n as indicated

Structure (SMILES) | Total ACF [1] | Number of foci with 1 aberrant crypt per focus [1] | Number of foci with 2 aberrant crypts per focus [1] | Number of foci with 3 aberrant crypts per focus [1] | Number of foci with 4 aberrant crypts per focus [1] | Number of foci with 5(+) (5 and more) aberrant crypts per focus [1] | Number of AOM-induced ACF in rat colon in proximal part ([1]; Example 1) | Number of AOM-induced ACF in rat colon in distal part ([1]; Example 1) | Number of AOM-induced ACF in rat colon in total ACF in colon ([1]; Example 1) | other results
CC(=O)Oc1ccccc1C(=O)O [Aspirin, acetyl salicylate] | 64.40 ± 3.46^c | 6.50 ± 1.12^b | 12.48 ± 1.23^b | 17.42 ± 1.94^b | 15.86 ± 1.82^c | 12.14 ± 0.86^b | 10.26 ± 1.11^b | 54.14 ± 1.96^b | 64.40 ± 3.46^c | –
CN1C(C(=O)Nc2ccccn2)=C(O)c2ccccc2S1(=O)=O [Piroxicam] | 62.64 ± 2.86^c | 4.18 ± 1.04^c | 13.16 ± 1.54^b | – | 14.78 ± 1.94^c | 14.24 ± 0.94^b | 12.16 ± 1.04^b | 50.48 ± 1.09^b | 62.64 ± 2.86^c | –
CC1=C(CC(=O)O)c2cc(F)ccc2/C1=C\c1ccc([S+](C)[O-])cc1 (centres unmarked) [Sulindac] | 73.87 ± 4.25 ^b | 4.08 ± 0.48^c | 12.14± 2.04^b | 20.37 ± 2.40^b | 20.48 ± 2.48^b | 16.80 ± 0.78^b | 11.24 ± 0.90^b | 62.58 ± 1.68^b | 73.87 ± 4.25 ^b | reduction of the incidence of ACF compared to the controls ([1]; Example 1, inulin at 10 % level and/or NSAID in diet): about 53%; number and size of colorectal adenomas compared to patients given placebo (colorectal adenomas): significantly reduce the number and size of colorectal adenomas; overall reduction in ACF (total colon) compared to the control diet ([2]; Example 2): about 52%; reduction of ACF in the distal colon compared to the control diet group ([2]; Example 2): about 44%; reduction of ACF in the proximal colon compared to the control diet group ([2]; Example 2): about 74%; Number of foci with 1 aberrant crypt per focus [2, 3]: 3.50 ± 0.38 ^b; Number of foci with 2 aberrant crypts per focus [2, 3]: 11.67 ± 1.19^b; Number of foci with 3 aberrant crypts per focus [2, 3]: 22.17± 1.03 ^c; Number of foci with 4 aberrant crypts per focus [2, 3]: 22.50 ± 0.86^b; Number of foci with 5(+) (5 and more) aberrant crypts per focus [2, 3]: 15.33 ± 0.45 ^c; Total ACF [2, 3]: 75.08 ± 1.93^d; foci with 3, 4 and 5 or more aberrant crypts compared to the other groups ([2]; Example 2, statement in text): significantly lower (p<0.05); Number of AOM-induced ACF in rat colon in distal part [2, 4]: 64.50 ± 1.54^d; Number of AOM-induced ACF in rat colon in proximal part [2, 4]: 10.58 ± 0.90^c; Number of AOM-induced ACF in rat colon, Total ACF in colon [2, 4]: 75.1 ± 1.93
